How the values were obtained:
[1] = system: HaloTag protein tag; assay: Probe mixed with HaloTag protein tag, fluorescence spectrophotometer (Example 86); assay type: biochemical; settings: 5 μM probe, 10 μM protein tag, 37° C., 1 hour; for Fluorescence enhancement: fluorescence activation multiple after binding protein tag; for Emission/nm: fluorescence emission wavelength
Description: (§1) A probe was mixed with a corresponding HaloTag protein tag to obtain a mixed sample. The final concentration of the probe in the mixed sample was 5 μM and the final concentration of the protein tag was 10 μM. The mixed sample was incubated at 37° C. for 1 hour, and the sample was detected using a fluorescence spectrophotometer.

[2] = Quantum yield of free probe not reacted with protein tag; assay type: physicochemical
Description: as §1

[3] = Viscosity responsiveness: fluorescence intensity in glycerol versus methanol; assay type: physicochemical; settings: fluorescence intensity in glycerol to that in methanol
Description: The above-mentioned viscosity-responsive fluorescent dye means that the fluorescence intensity of the dye responds to the viscosity of the solution. As the viscosity of the solution increases, the fluorescence intensity increases. Optionally, the viscosity-responsive fluorescent dye is an organic dye molecule which, under the same concentration and excitation wavelength, at 25° C. has a ratio • of the maximum fluorescence emission intensity of the dye in glycerol to the fluorescence intensity in methanol of greater than 2, optionally greater than 5, optionally greater than 10. The concentration of the viscosity-responsive dye ranges from 1×10^−7 M to 1×10^−5 M.

SMILES: CN(CCOC(=O)NCCOCCOCCCCCCCl)c1ccc(-c2ccc(/C=C(\C#N)C(=O)OC(C)(C)C)s2)cc1 [Probe 33]
- The quantum yield after binding to Halo-tag [1]: 0.47
- Fluorescence enhancement [1]: 957
- Emission/nm [1]: 620 nm
- The quantum yield of the free probe [2]: <0.001
- ratio [3]: 1781

SMILES: COCCNC(=O)/C(C#N)=C/c1ccc(-c2ccc(N(C)CCOC(=O)NCCOCCOCCCCCCCl)cc2)o1 [Probe 34]
- The quantum yield after binding to Halo-tag [1]: 0.32
- Fluorescence enhancement [1]: 857
- Emission/nm [1]: 615 nm
- The quantum yield of the free probe [2]: <0.001
- ratio [3]: 1774

SMILES: CN(CCOC(=O)NCCOCCOCCCCCCCl)c1ccc(-c2ccc(/C=C(\C#N)C(=O)O)s2)cc1 [Probe 35]
- The quantum yield after binding to Halo-tag [1]: 0.45
- Fluorescence enhancement [1]: 433
- Emission/nm [1]: 618 nm
- The quantum yield of the free probe [2]: 0.0012
- ratio [3]: 972

SMILES: CN(CCOC(=O)NCCOCCOCCCCCCCl)c1cc2cc3sc(/C=C(\C#N)C(=O)OC(C)(C)C)cc3cc2s1 [Probe 36]
- The quantum yield after binding to Halo-tag [1]: 0.58
- Fluorescence enhancement [1]: 488
- Emission/nm [1]: 630 nm
- The quantum yield of the free probe [2]: 0.001
- ratio [3]: 1258

SMILES: CN(CCOC(=O)NCCOCCOCCCCCCCl)c1cc2c(s1)-c1sc(C=C(C#N)C#N)cc1[Si]2(C)C [Probe 37]
- The quantum yield after binding to Halo-tag [1]: 0.56
- Fluorescence enhancement [1]: 469
- Emission/nm [1]: 655 nm
- The quantum yield of the free probe [2]: 0.0012
- ratio [3]: 1135

SMILES: CN(CCOC(=O)NCCOCCOCCCCCCCl)c1cc2c(s1)-c1sc(/C=C(\C#N)C(=O)OC(C)(C)C)cc1[Si]2(C)C [Probe 38]
- The quantum yield after binding to Halo-tag [1]: 0.56
- Fluorescence enhancement [1]: 503
- Emission/nm [1]: 650 nm
- The quantum yield of the free probe [2]: 0.0011
- ratio [3]: 1011

SMILES: CN(CCOC(=O)NCCOCCOCCCCCCCl)c1cc2c(s1)-c1sc(/C=C(\C#N)c3nc4ccccc4s3)cc1[Si]2(C)C [Probe 39]
- The quantum yield after binding to Halo-tag [1]: 0.38
- Fluorescence enhancement [1]: 335
- Emission/nm [1]: 700 nm
- The quantum yield of the free probe [2]: 0.0016
- ratio [3]: 892

SMILES: CN(CCOC(=O)NCCOCCOCCCCCCCl)c1ccc(-c2ccc(/C=C(\C#N)C(=O)OC(C)(C)C)s2)s1 [Probe 40]
- The quantum yield after binding to Halo-tag [1]: 0.47
- Fluorescence enhancement [1]: 421
- Emission/nm [1]: 657 nm
- The quantum yield of the free probe [2]: 0.001
- ratio [3]: 759

SMILES: COCCNC(=O)/C(C#N)=C/c1ccc(-c2ccc(N(C)CCOC(=O)NCCOCCOCCCCCCCl)s2)s1 [Probe 41]
- The quantum yield after binding to Halo-tag [1]: 0.44
- Fluorescence enhancement [1]: 418
- Emission/nm [1]: 700 nm
- The quantum yield of the free probe [2]: 0.0015
- ratio [3]: 101

SMILES: CN(CCOC(=O)NCCOCCOCCCCCCCl)c1ccc(-c2ccc(/C=C(\C#N)c3nc4ccccc4o3)s2)s1 [Probe 42]
- The quantum yield after binding to Halo-tag [1]: 0.39
- Fluorescence enhancement [1]: 375
- Emission/nm [1]: 702 nm
- The quantum yield of the free probe [2]: 0.0013
- ratio [3]: 178

SMILES: CC(C)(C)OC(=O)/C(C#N)=C/c1ccc2c(c1)SCCN2CCOC(=O)NCCOCCOCCCCCCCl [Probe 44]
- The quantum yield after binding to Halo-tag [1]: 0.63
- Fluorescence enhancement [1]: 1586
- Emission/nm [1]: 521 nm
- The quantum yield of the free probe [2]: <0.001
- ratio [3]: 1459

SMILES: N#C/C(=C\c1ccc2c(c1)SCCN2CCOC(=O)NCCOCCOCCCCCCCl)c1nc2ccccc2o1 [Probe 45]
- The quantum yield after binding to Halo-tag [1]: 0.54
- Fluorescence enhancement [1]: 958
- Emission/nm [1]: 545 nm
- The quantum yield of the free probe [2]: <0.001
- ratio [3]: 752

SMILES: CC1=CC(C)(C)N(CCOC(=O)NCCOCCOCCCCCCCl)c2ccc(/C=C(\C#N)C(=O)OC(C)(C)C)cc21 [Probe 46]
- The quantum yield after binding to Halo-tag [1]: 0.58
- Fluorescence enhancement [1]: 563
- Emission/nm [1]: 520 nm
- The quantum yield of the free probe [2]: <0.001
- ratio [3]: 682

SMILES: CC1=CC(C)(C)N(CCOC(=O)NCCOCCOCCCCCCCl)c2ccc(/C=C(\C#N)C(=O)O)cc21 [Probe 47]
- The quantum yield after binding to Halo-tag [1]: 0.45
- Fluorescence enhancement [1]: 358
- Emission/nm [1]: 523 nm
- The quantum yield of the free probe [2]: <0.001
- ratio [3]: 235

SMILES: CN(CCOC(=O)NCCOCCOCCCCCCCl)c1cc2c(s1)-c1sc(/C=C(\C#N)C(=O)OC(C)(C)C)cc1C2(C)C [Probe 48]
- The quantum yield after binding to Halo-tag [1]: 0.57
- Fluorescence enhancement [1]: 428
- Emission/nm [1]: 645 nm
- The quantum yield of the free probe [2]: <0.001
- ratio [3]: 480

SMILES: CN(CCOC(=O)NCCOCCOCCCCCCCl)c1cc2c(s1)-c1sc(/C=C(\C#N)c3nc4ccccc4o3)cc1C2(C)C [Probe 49]
- The quantum yield after binding to Halo-tag [1]: 0.54
- Fluorescence enhancement [1]: 541
- Emission/nm [1]: 680 nm
- The quantum yield of the free probe [2]: <0.001
- ratio [3]: 334

SMILES: CN(CCOC(=O)NCCOCCOCCCCCCCl)c1cc2c(s1)-c1sc(/C=C(\C#N)C(=O)O)cc1C2(C)C [Probe 50]
- The quantum yield after binding to Halo-tag [1]: 0.53
- Fluorescence enhancement [1]: 416
- Emission/nm [1]: 637 nm
- The quantum yield of the free probe [2]: <0.001
- ratio [3]: 358

SMILES: CN(CCOC(=O)NCCOCCOCCCCCCCl)c1ccc2c(c1)C(C)(C)c1cc(/C=C(/C#N)C(=O)OC(C)(C)C)ccc1-2 [Probe 51]
- The quantum yield after binding to Halo-tag [1]: 0.48
- Fluorescence enhancement [1]: 392
- Emission/nm [1]: 625 nm
- The quantum yield of the free probe [2]: <0.001
- ratio [3]: 359

SMILES: COCCNC(=S)/C(C#N)=C/c1cc2c(s1)-c1sc(N(C)CCOC(=O)NCCOCCOCCCCCCCl)cc1C2(C)C [Probe 52]
- The quantum yield after binding to Halo-tag [1]: 0.47
- Fluorescence enhancement [1]: 435
- Emission/nm [1]: 670 nm
- The quantum yield of the free probe [2]: <0.001
- ratio [3]: 270

SMILES: COCCNC(=S)/C(C#N)=C/c1cc2c(s1)-c1sc(N(C)CCOC(=O)NCCOCCOCCCCCCCl)cc1[Si]2(C)C [Probe 54]
- The quantum yield after binding to Halo-tag [1]: 0.41
- Fluorescence enhancement [1]: 498
- Emission/nm [1]: 710 nm
- The quantum yield of the free probe [2]: <0.001
- ratio [3]: 391

SMILES: CN1C(=O)/C(=C\c2cc3c(s2)-c2sc(N(C)CCOC(=O)NCCOCCOCCCCCCCl)cc2C3(C)C)SC1=S [Probe 55]
- The quantum yield after binding to Halo-tag [1]: 0.39
- Fluorescence enhancement [1]: 382
- Emission/nm [1]: 660 nm
- The quantum yield of the free probe [2]: <0.001
- ratio [3]: 211

SMILES: CN1C(=O)/C(=C\c2cc3c(s2)-c2sc(N(C)CCOC(=O)NCCOCCOCCCCCCCl)cc2[Si]3(C)C)SC1=S [Probe 56]
- The quantum yield after binding to Halo-tag [1]: 0.47
- Fluorescence enhancement [1]: 989
- Emission/nm [1]: 725 nm
- The quantum yield of the free probe [2]: <0.001
- ratio [3]: 436

SMILES: CN(CCO)c1ccc(/C=C(\C#N)C(=O)NCCOCCOCCCCCCCl)cc1 [Probe 58]
- The quantum yield after binding to Halo-tag [1]: 0.58
- Fluorescence enhancement [1]: 519
- Emission/nm [1]: 480 nm
- The quantum yield of the free probe [2]: <0.001
- ratio [3]: 419

SMILES: CN(C)c1ccc2cc(/C=C(\C#N)C(=O)OCCOCCOCCCCCCCl)sc2c1 [Probe 64]
- The quantum yield after binding to Halo-tag [1]: 0.60
- Fluorescence enhancement [1]: 519
- Emission/nm [1]: 585 nm
- The quantum yield of the free probe [2]: <0.001
- ratio [3]: 632

SMILES: CN(CCO)c1ccc2cc(/C=C(\C#N)C(=O)NCCOCCOCCCCCCCl)sc2c1 [Probe 65]
- The quantum yield after binding to Halo-tag [1]: 0.66
- Fluorescence enhancement [1]: 798
- Emission/nm [1]: 570 nm
- The quantum yield of the free probe [2]: <0.001
- ratio [3]: 391

SMILES: CNc1ccc2cc(/C=C(\C#N)C(=O)NCCOCCOCCCCCCCl)sc2c1 [Probe 66]
- The quantum yield after binding to Halo-tag [1]: 0.53
- Fluorescence enhancement [1]: 512
- Emission/nm [1]: 550 nm
- The quantum yield of the free probe [2]: <0.001
- ratio [3]: 386

SMILES: CN(C)c1ccc2cc(/C=C(\C#N)C(=O)NCCCCCCCl)sc2c1 [Probe 67]
- The quantum yield after binding to Halo-tag [1]: 0.48
- Fluorescence enhancement [1]: 576
- Emission/nm [1]: 580 nm
- The quantum yield of the free probe [2]: <0.001
- ratio [3]: 276

SMILES: CN(C)c1ccc2cc(/C=C(\C#N)C(=O)NCCOCCCl)sc2c1 [Probe 68]
- The quantum yield after binding to Halo-tag [1]: 0.50
- Fluorescence enhancement [1]: 681
- Emission/nm [1]: 580 nm
- The quantum yield of the free probe [2]: <0.001
- ratio [3]: 381

SMILES: CN(C)c1ccc2nc(/C=C(\C#N)C(=O)NCCOCCOCCCCCCCl)sc2c1 [Probe 71]
- The quantum yield after binding to Halo-tag [1]: 0.61
- Fluorescence enhancement [1]: 475
- Emission/nm [1]: 620 nm
- The quantum yield of the free probe [2]: 0.0028
- ratio [3]: 321

SMILES: CN(C)c1ccc2nc(/C=C(\C#N)C(=O)OCCOCCOCCCCCCCl)sc2c1 [Probe 72]
- The quantum yield after binding to Halo-tag [1]: 0.47
- Fluorescence enhancement [1]: 486
- Emission/nm [1]: 640 nm
- The quantum yield of the free probe [2]: 0.001
- ratio [3]: 268

SMILES: CN(C)c1cc2c(s1)-c1sc(/C=C3\SC(=O)N(CCOCCOCCCCCCCl)C3=O)cc1C2(C)C [Probe 78]
- The quantum yield after binding to Halo-tag [1]: 0.41
- Fluorescence enhancement [1]: 369
- Emission/nm [1]: 660 nm
- The quantum yield of the free probe [2]: <0.001
- ratio [3]: 452

From patent US12492337B2, “Fluorescent probe, preparation method therefor and use thereof” (FLUORESCENCE DIAGNOSIS (SHANGHAI) BIOTECH COMPANY, priority 2017, dated 2025)
